Measurements as given in US4877893A, “Process for the preparation of 2-(O-alkyl)-2-thio-1,3,2-oxathiophospholanes” (priority 1987, dated 1989).

Tests used:
Test in all cases: Fungicidal effect on infected agar nutrient media, colony diameter
Assay type in all cases: cell-based
Sclerotinia sclerotinia = conditions: 3rd day after treatment, untreated control 41.7
Experimental: (§1) Agar nutrient media (Diameter 70 MM, thickness 10 mm) infected by Sclerotonia sclerotinia suspension are treated with 20 EC formulations prepared according to Example 27 and comprising 1, 10, 100 and 1000 ppm, respectively of the active ingredient of the Formula I. The fungicidal effect of the compositions is evaluated on the 3rd day after treatment by measuring the diameter of the Fungi colonies.

Penicillium cyclopium = conditions: 7th day after treatment, untreated 26.5
Experimental: as §1
The series of measureents described in Example 35 is carried out except that the agar nutrient media are infected by a Penicillium cyclopium Fungi strain and the test is evaluated on the 7th day after treatment.

Alternaria tenuis = conditions: 5th day after treatment, untreated control 36.8
Experimental: as §1
The series of measurements according to Example 35 is carried out except that the agar nutrient media are infected by Alternaria Tenius and evaluation is accomplished on the 5th day after treatment.

| Structure (SMILES) | Diameter of colony (mm) (Sclerotinia sclerotinia; 1 ppm) | Diameter of colony (mm) (Sclerotinia sclerotinia; 10 ppm) | Diameter of colony (mm) (Sclerotinia sclerotinia; 100 ppm) | Diameter of colony (mm) (Sclerotinia sclerotinia; 1000 ppm) | Diameter of colony (mm) (Penicillium cyclopium; 1 ppm) | Diameter of colony (mm) (Penicillium cyclopium; 10 ppm) | Diameter of colony (mm) (Penicillium cyclopium; 100 ppm) | Diameter of colony (mm) (Penicillium cyclopium; 1000 ppm) | Diameter of colony (mm) (Alternaria tenuis; 1 ppm) | Diameter of colony (mm) (Alternaria tenuis; 10 ppm) | Diameter of colony (mm) (Alternaria tenuis; 100 ppm) | Diameter of colony (mm) (Alternaria tenuis; 1000 ppm) |
| --- | --- | --- | --- | --- | --- | --- | --- | --- | --- | --- | --- | --- |
| CC(CBr)OP1(=S)OC(C)C(C)S1 (stereo not drawn) [Compound 35] | 38.1 mm | 25.7 mm | 2.6 mm | 0 mm | 25.1 mm | 14.7 mm | 8.3 mm | 0 mm | 34.7 mm | 27.1 mm | 6.2 mm | 0 mm |
| CC(I)C(C)OP1(=S)OCCS1 (stereo not drawn) [Compound 30] | 34.8 mm | 30.0 mm | 0 mm | 0 mm | 21.2 mm | 20.0 mm | 7.2 mm | 0 mm | 30.1 mm | 26.7 mm | 7.2 mm | 0 mm |
| CC(Br)C(C)OP1(=S)OCCS1 (stereo not drawn) [Compound 29] | 31.9 mm | 25.2 mm | 1.2 mm | 0 mm | 25.0 mm | 19.2 mm | 8.0 mm | 0 mm | 33.2 mm | 23.6 mm | 6.5 mm | 0 mm |
| CCCCOP1(=S)OC(C)CS1 (stereo not drawn) [Compound 64] | 36.9 mm | 28.7 mm | 3.0 mm | 0 mm | 26.0 mm | 20.0 mm | 8.7 mm | 0 mm | 34.6 mm | 26.1 mm | 4.5 mm | 0 mm |
| CC(I)COP1(=S)OC(C)CS1 (stereo not drawn) [Compound 24] | 38.1 mm | 29.0 mm | 3.2 mm | 0 mm | 24.2 mm | 15.0 mm | 5.9 mm | 0 mm | 34.8 mm | 25.5 mm | 6.1 mm | 0 mm |
| CC1COP(=S)(OC(C)C(C)I)S1 (stereo not drawn) [Compound 33] | 33.2 mm | 26.4 mm | 0 mm | 0 mm | 22.3 mm | 20.7 mm | 6.1 mm | 0 mm | 33.0 mm | 21.3 mm | 6.3 mm | 0 mm |
| CC(Br)C(C)OP1(=S)OC(C)C(C)S1 (stereo not drawn) [Compound 44] | 35.4 mm | 28.1 mm | 4.0 mm | 0 mm | 17.9 mm | 17.1 mm | 5.1 mm | 0 mm | 33.5 mm | 26.2 mm | 7.0 mm | 0 mm |
| CCCCOP1(=S)OCC(C)S1 (stereo not drawn) [Compound 61, 2-(0-n-butyl)-2-thio-4-methyl-1,3,2-oxathiophospholane] | 35.6 mm | 28.9 mm | 2.7 mm | 0 mm | 24.0 mm | 19.0 mm | 8.3 mm | 0 mm | 36.2 mm | 24.3 mm | 6.2 mm | 0 mm |
| CCCOP1(=S)OCC(CC)S1 (stereo not drawn) [Compound 51, 2-(0-n-propyl)-2-thio-4-ethyl-1,3,2-oxathiophospholane] | 34.3 mm | 30.0 mm | 3.2 mm | 0 mm | 24.9 mm | 18.7 mm | 8.2 mm | 0 mm | 35.1 mm | 24.3 mm | 6.9 mm | 0 mm |
| CC(C)COP1(=S)OC(C)CS1 (stereo not drawn) [Compound 52, 2-(0-2'-methyl-n-propyI)-2-thio-5-methyl-1,3,2-oxathiophospholane] | 37.1 mm | 28.6 mm | 3.0 mm | 0 mm | 26.2 mm | 20.0 mm | 8.8 mm | 0 mm | 34.8 mm | 26.2 mm | 4.7 mm | 0 mm |
| CC(I)COP1(=S)OC(C)C(C)S1 (stereo not drawn) [Compound 42] | 38.2 mm | 31.2 mm | 3.5 mm | 0 mm | 22.2 mm | 17.2 mm | 7.5 mm | 0 mm | 32.1 mm | 20.4 mm | 9.0 mm | 0 mm |
| CC(Br)COP1(=S)OCC(C)S1 (stereo not drawn) [Compound 26] | 40.9 mm | 32.1 mm | 1.6 mm | 0 mm | 20.5 mm | 18.8 mm | 8.5 mm | 0 mm | 34.2 mm | 21.1 mm | 6.2 mm | 0 mm |
| S=P1(OCCBr)OCCS1 (stereo not drawn) [Compound 2, 2-(O-2'-bromoethyl)-2-thio-1,3,2-oxathiophospholane] | 32.9 mm | 29.3 mm | 3.1 mm | 0 mm | 24.6 mm | 19.0 mm | 8.4 mm | 0 mm | 30.9 mm | 26.1 mm | 5.3 mm | 0 mm |
| CC(Cl)COP1(=S)OC(C)C(C)S1 (stereo not drawn) [Compound 40] | 34.9 mm | 28.0 mm | 1.9 mm | 0 mm | 18.9 mm | 20.0 mm | 6.8 mm | 0 mm | 31.3 mm | 21.7 mm | 6.1 mm | 0 mm |
| CC1OP(=S)(OCCCl)SC1C (stereo not drawn) [Compound 16, 2-(0-2'-chloroethyl)-2-thio-4,5-dimethyl-1,3,2-oxathiophospholane] | 39.4 mm | 27.6 mm | 1.7 mm | 0 mm | 23.2 mm | 18.1 mm | 6.6 mm | 0 mm | 34.4 mm | 22.0 mm | 6.3 mm | 0 mm |
| CCCCOP1(=S)OC(C)CS1 (stereo not drawn) [Compound 60, 2-(0-n-butyl)-2-thio-5-methyl-1,3,2-oxathiophospholane] | 33.7 mm | 30.0 mm | 3.8 mm | 0 mm | 23.6 mm | 19.9 mm | 8.2 mm | 0 mm | 33.3 mm | 25.5 mm | 6.8 mm | 0 mm |
| CC1COP(=S)(OCCCl)S1 (stereo not drawn) [Compound 7] | 38.1 mm | 31.2 mm | 0 mm | 0 mm | 25.4 mm | 16.7 mm | 8.8 mm | 0 mm | 34.7 mm | 25.5 mm | 5.9 mm | 0 mm |
